Assay results taken from US20230011869A1 (Hoffmann-La Roche Inc., priority 2018, published 2023).
Counter-ions that a name gives are not always drawn. Like-named read-outs stand apart in the source and are kept apart here.

Tested on: Acinetobacter baumannii ATCC17978
Assay: Antimicrobial susceptibility testing: 90% growth inhibitory concentration (IC90) determination, Iso-Sensitest broth
Assay type: cell-based
Method in brief: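 A. baumannii ATCC17978 grown in Iso-Sensitest broth across 10 compound concentrations at 35±2 °C.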

[1] = 90% growth inhibitory concentration, Acinetobacter baumannii ATCC17978, Iso-Sensitest broth, OD 600 nm over 16 h, read-out: ATCC17978 IC90
[2] = Acinetobacter baumannii, ATCC17978, 16 h, read-out: ATCC17978 IC90, 90% growth inhibitory concentration, Acinetobacter baumannii ATCC17978, Iso-Sensitest broth, OD 600 nm over 16 h

SMILES	IC90 [2]	further results
COc1ccc(-c2cnc3c(Nc4ccc(C(=O)N5CCN(C(=O)[C@@H]6C[C@@H](O)CN6)CC5)c(C)c4)nccn23)c(F)c1F [Example 471, [4-[[3-(2,3-difluoro-4-methoxyphenyl)imidazo[1,2-a]pyrazin-8-yl]amino]-2-methylphenyl]-[4-[(2S,4R)-4-hydroxypyrrolidine-2-carbonyl]piperazin-1-yl]methanone]		IC90 [1]: 96 nM
Cc1cc(Nc2nccn3c(-c4ccc(OCC#N)c(F)c4F)cnc23)ccc1C(=O)N1CCC(C(=O)OC[C@@H]2CNCCN2)CC1 [Example 473, formic acid; [(2S)-piperazin-2-yl]methyl 1-[4-[[3-[4-(cyanomethoxy)-2,3-difluorophenyl]imidazo[1,2-a]pyrazin-8-yl]amino]-2-methylbenzoyl]piperidine-4-carboxylate]	300 nM	
COc1ccc(-c2cnc3c(Nc4ccc(C(=O)N5CCN(C(=O)[C@@H]6CCNC6)CC5)c(C)c4)nccn23)c(Cl)c1F [Example 474, [4-[[3-(2-chloro-3-fluoro-4-methoxyphenyl)imidazo[1,2-a]pyrazin-8-yl]amino]-2-methylphenyl]-[4-[(3R)-pyrrolidine-3-carbonyl]piperazin-1-yl]methanone; formic acid]	94 nM	
COc1ccc(-c2cnc3c(Nc4ccc(C(=O)N5CCN(C(=O)NCCN)CC5)c(C)c4)nccn23)c(F)c1F [Example 475, N-(2-aminoethyl)-4-[4-[[3-(2,3-difluoro-4-methoxyphenyl)imidazo[1,2-a]pyrazin-8-yl]amino]-2-methylbenzoyl]piperazine-1-carboxamide; formic acid]	97 nM	
COc1ccc(-c2cnc3c(Nc4ccc(C(=O)N5CCN(C(=O)[C@@H]6C[C@@H](O)CN6)CC5)c(C)c4)nccn23)c(Cl)c1F [Example 476, [4-[[3-(2-chloro-3-fluoro-4-methoxyphenyl)imidazo[1,2-a]pyrazin-8-yl]amino]-2-methylphenyl]-[4-[(2S,4R)-4-hydroxypyrrolidine-2-carbonyl]piperazin-1-yl]methanone; formic acid]	100 nM	
COc1ccc(-c2cnc3c(Nc4ccc(C(=O)N5CCN(C(=O)C6(F)CCNCC6)CC5)c(C)c4)nccn23)c(F)c1F [Example 477, [4-[[3-(2,3-difluoro-4-methoxyphenyl)imidazo[1,2-a]pyrazin-8-yl]amino]-2-methylphenyl]-[4-(4-fluoropiperidine-4-carbonyl)piperazin-1-yl]methanone; hydrochloride]	120 nM	
COc1ccc(-c2cnc3c(Nc4ccc(C(=O)N5CCN(C(=O)N[C@@H](C)CN)CC5)c(C)c4)nccn23)c(Cl)c1F [Example 478, formic acid]	130 nM	
COc1ccc(-c2cnc3c(Nc4ccc(C(=O)N5CCN(C(=O)C6CCNCC6)CC5)c(C)c4)nccn23)c(Cl)c1F [Example 479, [4-[[3-(2-chloro-3-fluoro-4-methoxyphenyl)imidazo[1,2-a]pyrazin-8-yl]amino]-2-methylphenyl]-[4-(piperidine-4-carbonyl)piperazin-1-yl]methanone; formic acid]	130 nM	
COc1ccc(-c2cnc3c(Nc4ccc(C(=O)N5CCN(C(=O)N6CCNCC6)CC5)c(C)c4)nccn23)c(F)c1F [Example 480, [4-[[3-(2,3-difluoro-4-methoxyphenyl)imidazo[1,2-a]pyrazin-8-yl]amino]-2-methylphenyl]-[4-(piperazine-1-carbonyl)piperazin-1-yl]methanone; formic acid]	140 nM	
Cc1cc(Nc2nccn3c(-c4ccc(OCC#N)c(F)c4F)cnc23)ccc1C(=O)N1CCN(C(=O)C2(F)CCNCC2)CC1 [Example 481, 2-[2,3-difluoro-4-[8-[4-[4-(4-fluoropiperidine-4-carbonyl)piperazine-1-carbonyl]-3-methylanilino]imidazo[1,2-a]pyrazin-3-yl]phenoxy]acetonitrile; for-mic acid]		IC90 [1]: 150 nM
Cc1cc(Nc2nccn3c(-c4ccc(OC(F)F)cc4)cnc23)ccc1C(=O)N1CCN(C(=O)N[C@H](C)CN)CC1 [Example 482, N-[(2R)-1-aminopropan-2-yl]-4-[4-[[3-[4-(difluoromethoxy)phenyl]imi-dazo[1,2-a]pyrazin-8-yl]amino]-2-methylbenzoyl]piperazine-1-carboxamide; hydrochlroide]	170 nM	
COc1ccc(-c2cnc3c(Nc4ccc(C(=O)N5CCN(C(=O)[C@@H]6CCNC6)CC5)c(C)c4)nccn23)cc1F [Example 483, [4-[[3-(3-fluoro-4-methoxyphenyl)imidazo[1,2-a]pyrazin-8-yl]amino]-2-methylphenyl]-[4-[(3R)-pyrrolidine-3-carbonyl]piperazin-1-yl]methanone; hydrochloride]	180 nM	
COc1ccc(-c2cnc3c(Nc4ccc(C(=O)N5CCN(C(=O)N6CCO[C@@H](CN)C6)CC5)c(C)c4)nccn23)c(Cl)c1F [Example 484, [4-[(2S)-2-(aminomethyl)morpholine-4-carbonyl]piperazin-1-yl]-[4-[[3-(2-chloro-3-fluoro-4-methoxyphenyl)imidazo[1,2-a]pyrazin-8-yl]amino]-2-methylphenyl]methanone; for-mic acid]		IC90 [1]: 180 nM
COc1ccc(-c2cnc3c(Nc4ccc(C(=O)N5CCN(C(=O)C6CCNCC6)CC5)c(C)c4)nccn23)c(F)c1F [Example 485, [4-[[3-(2,3-difluoro-4-methoxyphenyl)imidazo[1,2-a]pyrazin-8-yl]amino]-2-methylphenyl]-[4-(piperidine-4-carbonyl)piperazin-1-yl]methanone; hydrochloride]		IC90 [1]: 190 nM
Cc1cc(Nc2nccn3c(-c4ccc(OC(F)F)cc4)cnc23)ccc1C(=O)N1CCN(C(=O)[C@@H]2CCNC2)CC1 [Example 486, [4-[[3-[4-(difluoromethoxy)phenyl]imi-dazo[1,2-a]pyrazin-8-yl]amino]-2-methylphenyl]-[4-[(3R)-pyrrolidine-3-carbonyl]piperazin-1-yl]methanone; hydrochloride]	190 nM	
Cc1cc(Nc2nccn3c(-c4ccc(OC(F)F)cc4)cnc23)ccc1C(=O)N1CCN(C(=O)C2(F)CCNCC2)CC1 [Example 487, [4-[[3-[4-(difluoromethoxy)phenyl]imi-dazo[1,2-a]pyrazin-8-yl]amino]-2-methylphenyl]-[4-(4-fluoropiperidine-4-carbonyl)piperazin-1-yl]methanone; hydrochloride]		IC90 (read-out: ATCC17978 IC90, 90% growth inhibitory concentration, Acinetobacter baumannii ATCC17978, Iso-Sensitest broth, OD 600 nm over 16 h, hydrochloride): 220 nM
Cc1cc(Nc2nccn3c(-c4ccc(OC(F)F)cc4)cnc23)ccc1C(=O)N1CCN(C(=O)C2C3CCC2CNC3)CC1 (stereo not drawn) [Example 488, [4-(3-azabicyclo[3.2.1]octane-8-carbonyl)piperazin-1-yl]-[4-[[3-[4-(difluoromethoxy)phenyl]imi-dazo[1,2-a]pyrazin-8-yl]amino]-2-methylphenyl]methanone; hy-drochloride]	240 nM	
Cc1cc(Nc2nccn3c(-c4ccc(OC(F)F)cc4)cnc23)ccc1C(=O)N1CCN(C(=O)C2(O)CCNCC2)CC1 [Example 490, [4-[[3-[4-(difluoromethoxy)phenyl]imi-dazo[1,2-a]pyrazin-8-yl]amino]-2-methylphenyl]-[4-(4-hydroxypiperidine-4-carbonyl)piperazin-1-yl]methanone; hydrochloride]	280 nM	
Cc1cc(Nc2nccn3c(-c4ccc(OC(F)F)cc4)cnc23)ccc1C(=O)N1CCN(C(=O)N[C@@H](C)CN)CC1 [Example 491, N-[(2S)-1-aminopropan-2-yl]-4-[4-[[3-[4-(difluoromethoxy)phenyl]imi-dazo[1,2-a]pyrazin-8-yl]amino]-2-methylbenzoyl]piperazine-1-carboxamide]	300 nM	
Cc1cc(Nc2nccn3c(-c4ccc(OCC#N)c(F)c4F)cnc23)ccc1C(=O)N1CCC(C(=O)N2CCNC[C@H]2CO)CC1 [Example 492, 2-[2,3-difluoro-4-[8-[4-[4-[(2S)-2-(hydroxymethyl)piperazine-1-carbonyl]piperidine-1-carbonyl]-3-methylanilino]imidazo[1,2-a]pyrazin-3-yl]phenoxy]acetonitrile; for-mic acid]		IC90 [1]: 310 nM
Cc1cc(Nc2nccn3c(-c4ccc(OC(F)F)cc4)cnc23)ccc1C(=O)N1CCN(C(=O)NCC2(O)CNC2)CC1 [Example 493, 4-[4-[[3-[4-(difluoromethoxy)phenyl]imi-dazo[1,2-a]pyrazin-8-yl]amino]-2-methylbenzoyl]-N-[(3-hydroxyazetidin-3-yl)methyl]piperazine-1-carboxamide; formic acid]	310 nM	
CCc1cc(Nc2nccn3c(-c4ccc(OC)c(F)c4F)cnc23)ccc1C(=O)N1CCN(C(=O)C2CCNCC2)CC1 [Example 494, [4-[[3-(2,3-difluoro-4-methoxyphenyl)imidazo[1,2-a]pyrazin-8-yl]amino]-2-ethylphenyl]-[4-(piperidine-4-carbonyl)piperazin-1-yl]methanone; hydrochloride]	320 nM	
Cc1cc(Nc2nccn3c(-c4ccc(OC(F)F)cc4)cnc23)ccc1C(=O)N1CCN(C(=O)[C@H]2CCNC2)CC1 [Example 495, [4-[[3-[4-(difluoromethoxy)phenyl]imi-dazo[1,2-a]pyrazin-8-yl]amino]-2-methylphenyl]-[4-[(3S)-pyrrolidine-3-carbonyl]piperazin-1-yl]methanone; hydrochloride]	320 nM	
Cc1cc(Nc2nccn3c(-c4ccc(OC(F)F)cc4)cnc23)ccc1C(=O)N1CCN(C(=O)N2CCO[C@H](CN)C2)CC1 [Example 496, [4-[(2R)-2-(aminomethyl)morpholine-4-carbonyl]piperazin-1-yl]-[4-[[3-[4-(difluoromethoxy)phenyl]imi-dazo[1,2-a]pyrazin-8-yl]amino]-2-methylphenyl]methanone; for-mic acid]	330 nM	
